Data as given in patent US20090306080A1, “VETERINARY FORMULATION” (priority 2006, published 2009).

Format: physicochemical
Settings: pH 7
From the text: The solubility of cyromazine in a range of organic solvents including solvents which are commonly used in topical spray-on formulations is shown in the table below.

For `Nc1nc(N)nc(NC2CC2)n1` [cyromazine, 2-cyclopropyl-amino-4,6-diamino-s-triazine], the “Solubility (g/kg) at 20° C.” value was 1.3 (pH 7) g/kg.
